Results from patent US10077237B2 (Sanofi, priority 2013, dated 2018).
Counter-ions that a name gives are not always drawn.

Target: T1, recombinant human AMPK complex, containing α2β1γ2 (Homo sapiens, UniProt P54646+Q9Y478)
T1 construct: hsAMPKα2-552-His, hsAMPKβ1-2-270 and hsAMPKγ-2-569 respectively; hsAMPKβ1-2-270; hsAMPKγ-2-569; His (C); made in house; host or cells: Spodoptera frugiperda Sf21 (baculovirus)
Experiment: AMPK in vitro activation assay (HTRF)
Format: biochemical
Details: for EC50: HTRF, recombinant human α2β1γ2 AMPK, 200 μM ATP, biotinylated ACC-CREBp peptide, repeat determinations on separate lines
Outline: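 HTRF phosphorylation read-out (Eu-cryptate anti-pS133-CREB, streptavidin-XL665) after a 45 min, 37° C kinase step. This step was initiated by a solution with 200 μM ATP and 2 or 0.08 μM biotinylated ACC-CREBp peptide. Beforehand, compound sat 30 min at room temperature with baculovirus/Sf21 α2β1γ2 in pH 7.0 HEPES buffer; EC50 derived from activation over basal.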

[1] = potentiation of AMPK activity as percent over the basal signal (without compound)

T1 sequence (P54646 2-552): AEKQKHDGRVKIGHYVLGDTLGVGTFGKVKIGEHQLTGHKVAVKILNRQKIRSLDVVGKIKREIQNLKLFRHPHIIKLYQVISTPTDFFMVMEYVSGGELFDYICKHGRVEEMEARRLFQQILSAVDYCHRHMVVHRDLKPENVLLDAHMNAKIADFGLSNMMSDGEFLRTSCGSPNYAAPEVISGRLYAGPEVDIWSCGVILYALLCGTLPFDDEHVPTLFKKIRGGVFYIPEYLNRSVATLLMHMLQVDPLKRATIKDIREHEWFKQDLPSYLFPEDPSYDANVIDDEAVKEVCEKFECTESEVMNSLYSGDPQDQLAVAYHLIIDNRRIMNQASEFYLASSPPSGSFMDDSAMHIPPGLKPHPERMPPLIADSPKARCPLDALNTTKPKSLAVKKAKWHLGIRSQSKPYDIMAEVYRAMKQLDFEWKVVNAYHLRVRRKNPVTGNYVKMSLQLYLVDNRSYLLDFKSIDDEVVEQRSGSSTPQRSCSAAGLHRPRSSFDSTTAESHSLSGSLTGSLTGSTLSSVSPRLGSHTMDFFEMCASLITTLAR
T1 sequence (Q9Y478 2-270): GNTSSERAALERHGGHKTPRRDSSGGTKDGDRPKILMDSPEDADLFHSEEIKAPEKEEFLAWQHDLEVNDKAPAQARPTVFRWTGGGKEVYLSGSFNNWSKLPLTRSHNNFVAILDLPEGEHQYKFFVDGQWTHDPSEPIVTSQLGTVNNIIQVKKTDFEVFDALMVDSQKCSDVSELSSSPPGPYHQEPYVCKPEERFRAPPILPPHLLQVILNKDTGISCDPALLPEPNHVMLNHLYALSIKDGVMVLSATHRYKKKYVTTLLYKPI
T1 sequence (Q9UGJ0 2-569 partner limits assumed): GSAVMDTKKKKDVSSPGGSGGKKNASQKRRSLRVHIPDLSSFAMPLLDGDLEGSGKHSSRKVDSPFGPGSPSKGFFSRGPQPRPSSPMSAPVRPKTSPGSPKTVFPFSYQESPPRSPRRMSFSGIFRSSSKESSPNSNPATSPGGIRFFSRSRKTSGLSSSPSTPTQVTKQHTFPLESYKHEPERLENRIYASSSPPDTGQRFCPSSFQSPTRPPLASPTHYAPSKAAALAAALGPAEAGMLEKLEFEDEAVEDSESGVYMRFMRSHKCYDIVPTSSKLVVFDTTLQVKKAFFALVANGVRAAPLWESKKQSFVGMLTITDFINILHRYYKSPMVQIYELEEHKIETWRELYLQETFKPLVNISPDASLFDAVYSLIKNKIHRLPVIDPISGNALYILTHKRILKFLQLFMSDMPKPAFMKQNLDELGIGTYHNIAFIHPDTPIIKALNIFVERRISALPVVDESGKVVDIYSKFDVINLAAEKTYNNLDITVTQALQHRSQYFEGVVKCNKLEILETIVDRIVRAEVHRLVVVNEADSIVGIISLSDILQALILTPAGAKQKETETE

EC50 [nM]	Emax [1] [%]	α2β1γ2 AMPK Emax [1]	SMILES
63	159	–	Cc1cc(C(O)=C2C(=O)Nc3cc(Cl)c(-c4ccc(OCc5ncccn5)cc4)cc32)on1 [Compound 101, 6-chloro-3-[hydroxy-(3-methylisoxazol-5-yl)methylene]-5-[4-(pyrimidin-2-ylmethoxy)phenyl]indolin-2-one]
23	151	–	Cc1cc(C(O)=C2C(=O)Nc3cc(Cl)c(-c4ccc(-c5ccncc5)cc4)cc32)on1 [Compound 35, 6-Chloro-3-[1-hydroxy-1-(3-methyl-isoxazol-5-yl)-methylidene]-5-(4-pyridin-4-yl-phenyl)-1,3-dihydro-indol-2-one, hydrochloride]
250	147	–	Cc1cc(C(O)=C2C(=O)Nc3cc(Cl)c(-c4ccc(C5CC5)cc4)cc32)on1 [Compound 22, 6-Chloro-5-(4-cyclopropyl-phenyl)-3-[1-hydroxy-1-(3-methyl-isoxazol-5-yl)-methylidene]-1,3-dihydro-indol-2-one]
15	99	–	Cc1cc(C(O)=C2C(=O)Nc3cc(Cl)c(-c4ccc(C(O)(CO)CCl)cc4)cc32)on1 (stereo not shown) [Compound 80, 6-chloro-5-[4-[1-(chloromethyl)-1,2-dihydroxy-ethyl]phenyl]-3-[hydroxy-(3-methylisoxazol-5-yl)methylene]indolin-2-one]
230	155	–	Cc1cc(C(O)=C2C(=O)Nc3cc(Cl)c(-c4ccc(C5(CO)CC5)s4)cc32)on1 [Compound 45, 6-Chloro-5-[5-(1-hydroxymethyl-cyclopropyl)-thiophen-2-yl]-3-[1-hydroxy-1-(3-methyl-isoxazol-5-yl)-methylidene]-1,3-dihydro-indol-2-one]
11	194	–	CC(C)(C)c1cc(C(O)=C2C(=O)Nc3cc(Cl)c(-c4ccc(C5CC(O)C5)cc4)cc32)on1 (stereo not shown) [Compound 164, 3-[(3-tert-butylisoxazol-5-yl)-hydroxy-methylene]6-chloro-5-[4-(3-hydroxycyclobutyl)phenyl]indolin-2-one]
440	153	–	O=C1Nc2cc(Cl)c(-c3ccc(C4CC4)cc3)cc2C1=C(O)c1cccc(F)c1 [Compound 26, 6-Chloro-5-(4-cyclopropyl-phenyl)-3-[1-(3-fluoro-phenyl)-1-hydroxy-methylidene]-1,3-dihydro-indol-2-one]
13	197	–	CC(C)(C)c1cc(C(O)=C2C(=O)Nc3cc(Cl)c(-c4ccc(N5CCOCC5)cc4)cc32)on1 [Compound 112, 3-[(3-tert-butylisoxazol-5-yl)-hydroxy-methylene]6-chloro-5-(4-morpholinophenyl)indolin-2-one]
4020	134	–	Cc1cc(C(O)=C2C(=O)Nc3cc(Cl)c(-c4ccc(Cl)cc4)cc32)on1 [Compound 63, 6-Chloro-5-(4-chloro-phenyl)-3-[1-hydroxy-1-(3-methyl-isoxazol-5-yl)-methylidene]-1,3-dihydro-indol-2-one]
150	208	–	Cc1cc(C(O)=C2C(=O)Nc3cc(Cl)c(-c4ccc(C5CCCO5)cc4)cc32)on1 (stereo not shown) [Compound 68, 6-Chloro-3-[1-hydroxy-1-(3-methyl-isoxazol-5-yl)methylidene]-5-[4-(tetrahydro-furan-2-yl)phenyl]-1,3-dihydro-indol-2-one]
3	192	–	COc1cc(C(O)=C2C(=O)Nc3cc(Cl)c(-c4ccc(C5=CCOCC5)cc4)cc32)on1 [Compound 67, 6-Chloro-5-[4-(3,6-dihydro-2H-pyran-4-yl)phenyl]-3-[1-hydroxy-1-(3-methoxy-isoxazol-5-yl)methylidene]-1,3-dihydro-indol-2-one]
8	134	–	Cc1cc(C(O)=C2C(=O)Nc3cc(Cl)c(-c4ccc(OCCCN5CCNCC5)cc4)cc32)on1 [Compound 69, 6-Chloro-3-[1-hydroxy-1-(3-methyl-isoxazol-5-yl)methylidene]-5-[4-(3-piperazin-1-yl-propoxy)phenyl]-1,3-dihydro-indol-2-one, hydrochloride]
9	394	–	COc1cc(C(O)=C2C(=O)Nc3cc(Cl)c(-c4ccc(C5CCNC5)cc4)cc32)on1 (stereo not shown) [Compound 134, 6-chloro-3-[hydroxy-(3-methoxyisoxazol-5-yl)methylene]-5-(4-pyrrolidin-3-ylphenyl)indolin-2-one hydrochloride]
4	193	–	COc1cccc(-c2ccc(-c3cc4c(cc3Cl)NC(=O)C4=C(O)c3cc(C)no3)cc2)c1O [Compound 5, 6-Chloro-5-(2′-hydroxy-3′-methoxy-biphenyl-4-yl)-3-[1-hydroxy-1-(3-methyl-isoxazol-5-yl)-meth-ylidene]-1,3-dihydro-indol-2-one]
16	114	–	COCCOc1ccc(-c2cc3c(cc2Cl)NC(=O)C3=C(O)c2cc(C)no2)cc1 [Compound 103, 6-chloro-3-[hydroxy-(3-methylisoxazol-5-yl)methylene]-5-[4-(2-methoxyethoxy)phenyl]indolin-2-one]

Second part, the compound before the results:

SMILES	EC50 [nM]	Emax [1] [%]	α2β1γ2 AMPK Emax [1]
COc1cc(C(O)=C2C(=O)Nc3cc(Cl)c(-c4ccc(N(C)C)c(F)c4)cc32)on1 [Compound 147, 6-chloro-5-[4-(dimethylamino)-3-fluoro-phenyl]-3-[hydroxy-(3-methoxyisoxazol-5-yl)methylene]indolin-2-one]	15	267	–
O=C1Nc2cc(Cl)c(-c3ccc(N4CCOCC4)cc3)cc2C1=C(O)c1cccc(C(=O)O)c1 [Compound 4, 3-{[6-Chloro-5-(4-morpholin-4-yl-phenyl)-2-oxo-1,2-dihydro-indolylidene]-hydroxy-methyl}-benzoic acid]	15	97	–
O=C1Nc2cc(Cl)c(-c3ccc(N4CCOCC4)cc3)cc2C1=C(O)c1cccc(Cl)c1 [Compound 34, 6-Chloro-3-[1-(3-chloro-phenyl)-1-hydroxy-methylidene]-5-(4-morpholin-4-yl-phenyl)-1,3-dihydro-indol-2-one]	630	156	–
COc1cc(C(O)=C2C(=O)Nc3cc(F)c(-c4ccc(C5(CO)CC5)cc4)cc32)on1 [Compound 118, 6-fluoro-3-[hydroxy-(3-methoxyisoxazol-5-yl)methylene]-5-[4-[1-(hydroxymethyl)cyclopropyl]phenyl]indolin-2-one]	0.5	133	–
COc1cc(C(O)=C2C(=O)Nc3cc(F)c(-c4ccc(-c5cccc(OC)c5O)cc4)c(F)c32)on1 [Compound 92, 4,6-difluoro-3-[hydroxy-(3-methoxyisoxazol-5-yl)methylene]-5-[4-(2-hydroxy-3-methoxy-phenyl)phenyl]indolin-2-one]	0.3	172	–
Cc1ncc(C(O)=C2C(=O)Nc3cc(Cl)c(-c4ccc(C5(CO)CC5)cc4)cc32)s1 [Compound 75, 6-Chloro-5-[4-(1-hydroxymethyl-cyclopropyl)phenyl]-3-[1-hydroxy-1-(2-methyl-thiazol-5-yl)methylidene]-1,3-dihydro-indol-2-one]	1	142	–
COc1cc(F)c(C(O)=C2C(=O)Nc3cc(Cl)c(-c4ccc(C5CC(O)C5)cc4)cc32)cc1F (stereo not shown) [Compound 159, 6-chloro-3-[(2,5-difluoro-4-methoxy-phenyl)hydroxy-methylene]-5-[4-(3-hydroxycyclobutyl)phenyl]indolin-2-one]	10	180	–
COc1c(F)cc(C(O)=C2C(=O)Nc3cc(Cl)c(-c4ccc(N5CCOCC5)cc4)cc32)cc1Cl [Compound 97, 6-chloro-3-[(3-chloro-5-fluoro-4-methoxy-phenyl)hydroxy-methylene]-5-(4-morpholinophenyl)indolin-2-one]	41	185	–
O=C1Nc2cc(Cl)c(-c3ccc(C4(CO)CC4)cc3)cc2C1=C(O)c1ccncc1F [Compound 160, 6-chloro-3-[(3-fluoro-4-pyridyl)hydroxy-methylene]-5-[4-[1-(hydroxymethyl)cyclopropyl]phenyl]indolin-2-one]	0.1	191	–
O=C1Nc2cc(Cl)c(-c3ccc(C4(CO)CC4)cc3)cc2C1=C([O-])c1ccccc1F.[Na+] [Compound 47, 6-Chloro-3-[1-(2-fluoro-phenyl)-1-hydroxy-methylidene]-5-[4-(1-hydroxymethyl-cyclopropyl)-phenyl]-1,3-dihydro-indol-2-one, sodium salt]	25	–	(94) %
Cc1[nH]c(=O)sc1C(O)=C1C(=O)Nc2cc(Cl)c(-c3ccc(N4CCOCC4)cc3)cc21 [Compound 107, 5-[-[6-chloro-5-(4-morpholinophenyl)-2-oxo-indolin-3-ylidene]-hydroxy-methyl]-4-methyl-3H-thiazol-2-one]	36	104	–
COc1cc(C(O)=C2C(=O)Nc3cc(Cl)c(-c4ccc(OCCCN(C)C)cc4)cc32)on1 [Compound 173, 6-chloro-5-[4-[3-(dimethylamino)propoxy]phenyl]-3-[hydroxy-(3-methoxyisoxazol-5-yl)methylene]indolin-2-one]	1	181	–
O=C1Nc2cc(F)c(-c3ccc(C4(CO)CC4)cc3)c(F)c2C1=C(O)c1cc(C2CC2)no1 [Compound 120, 3-[(3-cyclopropylisoxazol-5-yl)hydroxy-methylene]-4,6-difluoro-5-[4-[1-(hydroxymethyl)cyclopropyl]phenyl]indolin-2-one]	0.2	169	–
COc1ccc(C(O)=C2C(=O)Nc3cc(Cl)c(-c4ccc(N5CCOCC5)cc4)cc32)nc1 [Compound 140, 6-chloro-3-[hydroxy-(5-methoxy-2-pyridyl)methylene]-5-(4-morpholinophenyl)indolin-2-one]	21	227	–
